Results taken from ChEMBL document CHEMBL1146777, “Interaction with the S1 beta-pocket of urokinase: 8-heterocycle substituted and 6,8-disubstituted 2-naphthamidine urokinase inhibitors” (Bioorg Med Chem Lett, 2004).

How the values were obtained:
[1] = target: Urokinase-type plasminogen activator (Homo sapiens, UniProt P00749)
Description: Binding affinity towards Urokinase-type plasminogen activator (urokinase)

[2] = target: Plasminogen (Homo sapiens, UniProt P00747); assay: Binding affinity against plasmin
[3] = target: Serine protease 1 (Homo sapiens, UniProt P07477); assay: Binding affinity against trypsin
Chain of Serine protease 1 (P07477 whole entry): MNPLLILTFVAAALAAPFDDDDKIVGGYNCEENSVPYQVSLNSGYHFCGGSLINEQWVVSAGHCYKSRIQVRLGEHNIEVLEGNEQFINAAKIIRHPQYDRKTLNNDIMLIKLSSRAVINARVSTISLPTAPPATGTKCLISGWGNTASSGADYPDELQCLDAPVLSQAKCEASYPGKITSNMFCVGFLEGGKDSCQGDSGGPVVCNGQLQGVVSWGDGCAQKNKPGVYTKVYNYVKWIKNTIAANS

[4] = target: Tissue-type plasminogen activator (Homo sapiens, UniProt P00750); assay: Binding affinity towards tissue type plasminogen activator
Chain of Tissue-type plasminogen activator (P00750 whole entry): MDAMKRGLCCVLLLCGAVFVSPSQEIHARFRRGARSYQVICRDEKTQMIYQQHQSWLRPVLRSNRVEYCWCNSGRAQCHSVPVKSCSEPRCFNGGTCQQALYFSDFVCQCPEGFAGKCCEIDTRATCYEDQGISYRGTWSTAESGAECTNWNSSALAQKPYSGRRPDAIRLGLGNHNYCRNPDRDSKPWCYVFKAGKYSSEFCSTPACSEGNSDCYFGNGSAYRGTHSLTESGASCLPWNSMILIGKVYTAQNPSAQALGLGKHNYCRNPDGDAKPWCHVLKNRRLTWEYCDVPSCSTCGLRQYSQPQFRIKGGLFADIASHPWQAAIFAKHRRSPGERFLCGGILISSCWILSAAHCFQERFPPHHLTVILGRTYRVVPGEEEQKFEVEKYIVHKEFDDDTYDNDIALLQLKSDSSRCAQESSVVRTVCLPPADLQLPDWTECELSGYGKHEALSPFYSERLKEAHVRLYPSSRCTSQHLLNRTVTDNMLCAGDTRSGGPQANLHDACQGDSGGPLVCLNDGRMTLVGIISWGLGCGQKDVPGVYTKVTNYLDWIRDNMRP

[5] = target: Prothrombin (Homo sapiens, UniProt P00734); assay: Binding affinity against thrombin
[6] = Binding affinity against trypsin

Chain of Plasminogen (P00747 97-580 limits assumed): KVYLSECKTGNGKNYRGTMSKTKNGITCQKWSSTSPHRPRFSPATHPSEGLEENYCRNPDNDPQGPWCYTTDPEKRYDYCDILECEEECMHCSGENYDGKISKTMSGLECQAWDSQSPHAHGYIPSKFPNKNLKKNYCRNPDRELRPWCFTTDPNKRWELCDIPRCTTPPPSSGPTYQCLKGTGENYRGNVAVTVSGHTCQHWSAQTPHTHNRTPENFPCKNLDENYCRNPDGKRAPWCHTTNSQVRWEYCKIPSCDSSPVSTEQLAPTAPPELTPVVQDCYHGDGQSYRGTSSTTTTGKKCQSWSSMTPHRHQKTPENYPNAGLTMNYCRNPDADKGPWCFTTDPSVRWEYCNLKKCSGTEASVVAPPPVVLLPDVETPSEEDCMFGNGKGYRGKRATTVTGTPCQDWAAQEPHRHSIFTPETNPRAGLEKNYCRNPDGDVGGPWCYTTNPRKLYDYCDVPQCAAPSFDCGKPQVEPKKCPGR
Chain of Plasminogen (P00747 581-810 limits assumed): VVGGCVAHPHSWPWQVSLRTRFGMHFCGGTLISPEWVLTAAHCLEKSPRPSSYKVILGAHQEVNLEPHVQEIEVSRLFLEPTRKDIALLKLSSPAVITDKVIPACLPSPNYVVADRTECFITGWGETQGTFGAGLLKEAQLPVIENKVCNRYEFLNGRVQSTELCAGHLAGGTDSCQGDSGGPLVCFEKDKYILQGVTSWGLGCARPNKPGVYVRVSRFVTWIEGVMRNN

**Q.** Which Ki [1] does the source give for COc1ccc2ccc(C(=N)N)cc2c1-c1cnn(C)c1 here?
**A.** 4600 nM

**Q.** Which results are given for N=C(N)c1ccc2cccc(Nc3ncccn3)c2c1?
**A.** Ki [2]: 3800 nM; Ki [3]: 1700 nM; Ki [4]: 24000 nM; Ki [5]: 3200 nM

**Q.** What does the source list for N=C(N)c1ccc2cc(C(=O)Nc3ccc(CN)cc3)cc(Nc3ncccn3)c2c1?
**A.** Ki [2]: 150 nM; Ki [3]: 20 nM; Ki [4]: 680 nM; Ki [5]: 940 nM

**Q.** With CCSc1cc(-c2cc(C(=O)Nc3ccccc3)cc3ccc(C(=N)N)cc23)co1 as the compound, how does the Ki [2] read?
**A.** 53 nM

**Q.** What about the Ki [1] of the same compound?
**A.** 40 nM

**Q.** And the Ki [3]?
**A.** 11 nM

**Q.** And the Ki [4]?
**A.** 3300 nM

**Q.** And the Ki [5]?
**A.** 120 nM

**Q.** With [H]/N=C(/N)c1ccc2cc(C(=O)Nc3ccccc3)cc(Nc3ncccn3)c2c1 as the compound, how does the Ki [2] read?
**A.** 90 nM

**Q.** And the Ki [1]?
**A.** 2 nM

**Q.** What about the Ki [3] of the same compound?
**A.** 40 nM

**Q.** And the Ki [4]?
**A.** 810 nM

**Q.** And the Ki [5]?
**A.** 170 nM

**Q.** Which results are given for COc1ccc2ccc(C(=N)N)cc2c1-c1ccoc1?
**A.** Ki [2]: 9400 nM; Ki [3]: 1200 nM; Ki [4]: 18000 nM; Ki [5]: 1300 nM

**Q.** Which Ki [6] does the source give for N=C(N)c1ccc2cc(C(=O)Nc3ccccc3)ccc2c1 here?
**A.** 330 nM

**Q.** Which Ki [4] does the source give for N=C(N)c1ccc2ccccc2c1 here?
**A.** > 100000 nM

**Q.** What about the Ki [6] of the same compound?
**A.** 7800 nM

**Q.** Which Ki [2] does the source give for N=C(N)c1ccc2cc(C(=O)Nc3ccccc3)cc(C3CCOC3)c2c1 (stereo unspecified) here?
**A.** 400 nM

**Q.** What about the Ki [1] of the same compound?
**A.** 106 nM

**Q.** What about the Ki [3] of the same compound?
**A.** 30 nM

**Q.** And the Ki [4]?
**A.** 870 nM

**Q.** What about the Ki [5] of the same compound?
**A.** 360 nM

**Q.** What does the source list for N=C(N)c1ccc2cc(C(=O)Nc3ccccc3)cc(-c3ccoc3)c2c1?
**A.** Ki [2]: 320 nM; Ki [1]: 91 nM; Ki [3]: 45 nM; Ki [4]: 180 nM; Ki [5]: 130 nM

**Q.** Which Ki [2] does the source give for N=C(N)c1ccc2cccc(N)c2c1 here?
**A.** 6600 nM

**Q.** And the Ki [3]?
**A.** 200 nM

**Q.** And the Ki [4]?
**A.** 27000 nM

**Q.** And the Ki [5]?
**A.** 5200 nM

**Q.** With CCS(=O)(=O)c1cc(-c2cc(C(=O)Nc3cccc(OC4CCCC4)c3)cc3ccc(C(=N)N)cc23)co1 as the compound, how does the Ki [2] read?
**A.** 38 nM

**Q.** What about the Ki [1] of the same compound?
**A.** 2.1 nM

**Q.** What about the Ki [3] of the same compound?
**A.** 3 nM

**Q.** And the Ki [4]?
**A.** 1600 nM

**Q.** And the Ki [5]?
**A.** 610 nM

**Q.** With COc1ccc2ccc(C(=N)N)cc2c1C1CCOC1 (stereo unspecified) as the compound, how does the Ki [2] read?
**A.** 6000 nM

**Q.** What about the Ki [3] of the same compound?
**A.** 320 nM

**Q.** What about the Ki [4] of the same compound?
**A.** 7400 nM

**Q.** What about the Ki [5] of the same compound?
**A.** 450 nM

**Q.** With CCS(=O)(=O)c1cc(-c2cc(C(=O)Nc3ccccc3)cc3ccc(C(=N)N)cc23)co1 as the compound, how does the Ki [2] read?
**A.** 56 nM

**Q.** What about the Ki [3] of the same compound?
**A.** 3.5 nM

**Q.** What about the Ki [4] of the same compound?
**A.** 8300 nM

**Q.** And the Ki [5]?
**A.** 290 nM

**Q.** Which results are given for COc1ccc2ccc(C(=N)N)cc2c1-c1cnn(S(C)(=O)=O)c1?
**A.** Ki [2]: 8500 nM; Ki [3]: 2700 nM; Ki [4]: > 100000 nM; Ki [5]: 7100 nM

**Q.** For CC(C)Oc1cccc(NC(=O)c2cc(C3CCOC3)c3cc(C(=N)N)ccc3c2)c1 (stereo unspecified), which Ki [2] is on record?
**A.** 190 nM

**Q.** What about the Ki [3] of the same compound?
**A.** 12 nM

**Q.** What about the Ki [4] of the same compound?
**A.** 130 nM

**Q.** What about the Ki [5] of the same compound?
**A.** 1100 nM
